{"source": "patent US6949679B1", "about": "“Polyamine transport inhibitors” (Universite Laval, priority 1998, dated 2005)", "key": {"[1]": {"test_system": "polyamine transporter", "test": "Inhibition of [14C]spermine uptake in ZR-75-1 cells", "format": "cell-based, human", "conditions": "3μM substrate (Example 11), read-out: Ki, [14C]spermine transport"}, "[2]": {"test_system": "ZR-75-1 cells", "test": "Time course of intracellular [3H]spermidine accumulation in presence of transport antagonists", "format": "cell-based, human", "conditions": "200 μM DESC (40-fold excess), 5 μM [3H]spermidine, after 6 hours", "experimental": "The time course of intracellular accumulation of spermidine in the presence of transport antagonists was determined by incubating ZR-75-1 cells in 24-well plates with DESC (50 or 200 μM) or MESC (200 μM) in dissolved in MEZR medium containing 5 μM [^3H]spermidine in the presence or absence of cycloheximide (CHX, 200 μM), and harvesting at the indicated times for the determination of intracellular radioactive contents, as described above for polyamine uptake assays."}, "[3]": {"test": "Stability in biological media (cell-free, HPLC)", "format": "physicochemical", "conditions": "IMEM, 48 hours, 37° C.", "experimental": "DESC stability was tested by incubating the compound dissolved (at 50 μM) in PBS or in IMEM medium containing 10% (v/v) fetal bovine serum plus or minus 1 mM aminoguanidine in a humid 5% CO2 atmosphere at 37° C. and in the absence of cells. At indicated times, trichloroacetic acid was added to aliquots of this solution to a final concentration 10% (w/v) and the samples directly analyzed by HPLC as above.\nThe inability of DESC to block the biological effect of exogenous spermidine, even when present at large molar excesses, might have been caused by its degradation in growth media. To assess this hypothesis, DESC solutions (20 μM) made in PBS or in sterile IMEM medium enriched with 10% (v/v) FBS were incubated for 20 minutes or 48 hours under cell-free conditions at 37° C. in a humid 5% CO2 atmosphere, and the polyamine analog was then analyzed by ion-pair reversed-phase HPLC. After 48 hours, degradation of DESC to two new amine-containing derivatives occurred in IMEM (FIG. 9A, B) but not in PBS (FIG. 9C), as evidenced by the appearance of a major (compound 1) and minor (compound 2) peaks of o-phthaldialdehyde-reactive material eluting earlier than DESC. […] After 48 hours, i.e. the interval at which freshly made DESC-containing media were added to cell cultures in growth experiments, 40% of the DESC originally present had been decomposed by IMEM. […]"}, "[4]": {"conditions": "MESC: amino group neighboring the amide linkage; cited from earlier work"}}}
{"smiles": "NCCCNCCCC(NCCCN)C(=O)NCCSSCCNC(=O)C(CCCNCCCN)NCCCN", "note": "(stereo not shown) [DESC, 2,2′-dithiobis(N-ethyl-spermine-5-carboxamide)]", "values": [{"measurement": "Ki", "setting": "[1]", "result": 17, "unit": "µM"}, {"measurement": "Decrease of net spermidine accumulation", "setting": "[2]", "result": 50, "unit": "%"}, {"measurement": "DESC originally present decomposed", "setting": "[3]", "result": 40, "unit": "%"}]}
{"smiles": "NCCCNCCCC(NCCCN)C(=O)NCCS", "note": "(stereo not shown) [MESC, N-(2-mercaptoethyl)spermine-5-carboxamide]", "values": [{"measurement": "pKa of secondary amino group of the spermine head", "setting": "[4]", "result": 5.5}]}
